These results are taken from patent US20060025449A1, “Use of N-substituted imino sugars for appetite suppression” (priority 2004, published 2006).

Some results are limits rather than exact numbers.

The subject of assay [1] is C57B1/6 mice. The experiment in a line: Effect of imino sugars admixed with diet on growth of normal control mice. Format: in vivo, mouse. As for the experimental part:
Control C57B1/6 and C57BL/6O1aHsd-Lep ob mice were obtained from Harlan, UK at five weeks of age. The mice were housed under standard non-sterile conditions and fed a diet of mouse chow pelleted or expanded ground RM1 diet (SDS Ltd, Witham, Essex) with water available ad libitum. For dietary treatment of the mice with NB-DNJ or NB-DGJ, the diet and compound were admixed thoroughly as dry solids, stored at room temperature and used within 7 days. Unless indicated otherwise, mice were treated with a dose of 2400 mg/kg body weight per day, assuming an intake of around 5 g diet/day. Mice were maintained on diet with or without compound for up to six months of age and were weighed at regular intervals during the course of the experiment (see figure legends for group sizes and further experimental details). To study the effect of compound on obese mice, three groups (n=5) of ob/ob mice were monitored from five weeks of age. One group acted as control and were fed ground RM1 diet. At 6 weeks of age, the second group was started on NB-DNJ in the diet, whilst the third group started drug treatment at 12 weeks of age. All mice were then monitored for up to six months of age. […] In the first week of treatment, mice with NB-DNJ in their diet lost about 10% of their total body mass. Over the course of the following weeks, their weight stabilises. By 5 weeks of treatment they weighed 25% less than the controls. They then started to gain weight. However, after 10 weeks they remained 20% less in mass when compared with the age and sex-matched control group.

Assay [2] has as its system C57B1/6 mice. The experiment in a line: Skin histology/thickness and gross dissection for white adipose tissue. The class given is in vivo, mouse. Here is the method: Six week-old control mice on a normal diet or treated with 2400 mg/kg/day NB-DNJ for four weeks (n=3 in each group), were sacrificed and hair removed by shaving followed by application of a depilatory cream. A small section of skin was excised from the same area of the back of each mouse and processed for histology. After excision, the skin was put into mini histology trays containing OCT compound (BDH Laboratory Supplies, UK) and frozen for cryo-sectioning. Cryosections (10 μm thickness) of skin were then fixed in ice-cold acetone for 30 sec and rinsed under running tap water for 1 minute before dipping briefly in Mayer's haemotoxylin (Sigma, UK). The sections were dehydrated through a rising ethanol concentration series of 70%, 80%, 95%, 100% before clearing with Histo-Clear Histological Clearing agent (National Diagnostics, […], Hull, UK) twice for 5 min. Finally, the sections of skin were mounted with cover slips and DePeX mounting medium (BDH Laboratory Supplies, UK) on glass microscope slides. Another portion of skin (5 mm^2) was taken from each mouse, placed on a microscope slide and skin thickness measured using a micrometer gauge. […] Also, after complete depilation, this group of mice had transparent skin making the visceral organs, ventrally, and the kidneys and spinal vertebrae, dorsally, clearly visible in contrast to the opaque, non-transparent skin of controls. […]

Assay [3] concerns male C57B1/6 mice. The experiment in a line: Epididymal fat pad weight, dose-response. The class given is in vivo, mouse. Here is the method:
A dose-response relationship for the effect of increasing concentrations of NB-DNJ on adipose tissue in male C57B1/6 mice was determined by treating with doses ranging from 15 to 2400 mg/kg/day for 5 weeks. Mice were sacrificed and their epididymal fat pads excised and weighed. The results are expressed as a ratio of epididymal pad fat mass to total body weight.

For assay [4], the system named is lean control mouse. The experiment in a line: Single intracerebroventricular (ICV) injection, food intake and weight change after 24 hours. The class given is in vivo. Here is the method:
To investigate a central anorexigenic mechanism for weight loss in mice treated with NB-DNJ, single intracerebro-ventricular (ICV) injections were performed. The mice were assessed for food intake and weight change. Mice were anesthetized with isofluorane (4%) delivered by a vaporiser. Upon achievement of a surgical plane of anaesthesia, the animal was transferred to and secured in a Kopf small animal ultra precise stereotaxic instrument (David Kopf Instruments, Tujunga, Calif., USA) fitted with rat ear bars, mouse adaptor and mouse anaesthesia mask. A small amount of lignocaine local anaesthetic gel was applied to the ear bars to reduce any post-operative discomfort. For the remainder of the procedure, anaesthesia was maintained with 2.5% isofluorane. Lacrilube (Allergan Ltd, High Wycombe, UK) was applied to the mouse's eyes and a subcutaneous injection of the non-steroidal anti-inflammatory drug, Rimadyl (Pfizer, Sandwich, Kent, UK) was given for post-operative analgesia. For ICV injections, a small scalpel incision was made along the midline of the scalp from above the eyes to the occiput. A small hole was drilled in the skull, 1 mm lateral and 0.34 mm posterior to Bregma. 1 μl solution was slowly infused into the lateral ventricle at a depth of 2.25 mm, via a glass needle pipette pulled to a thickness of less than 100 microns at the tip. Mice were injected with 2 nmol compound (NB-DNJ, NB-DGJ or 2-deoxy glucose) in isotonic saline vehicle which was injected into controls. The incision was then closed using VetBond acrylic suture fluid (3M Animal Care Products, St Paul, Minn., USA). The whole procedure from induction of anaesthesia to full recovery lasted less than seven minutes. Mice were allowed free access to a pre-weighed quantity of RM1 pellet diet with water provided ad libitum. 24 hours following ICV injection the mice and remaining diet were weighed. To confirm a central anorectic effect of NB-DNJ, 2 nmol NB-DNJ, NB-DGJ and 2 deoxyglucose were injected directly into the lateral cerebral ventricle of lean control mouse brain (approximately 100 μM final cerebro-ventricular concentration). Mice injected with both saline vehicle and NB-DGJ ate a normal quantity of pellet diet in the following 24 hours (FIG. 9), approximately 5% less in this experiment than that seen in control mice in FIG. 7 (not statistically significant). In contrast, NB-DNJ-injected mice ate 20% less (p<0.02 for both saline and NB-DGJ) and 2-deoxy-glucose injections caused a 10% increase in feeding. 2-deoxy-glucose is a mild appetite stimulant in the short-term. Tsutsui et al., Physiol Behav 31, 493-502. In contrast, NB-DGJ had no effect, as expected.

In assay [5] the test system is C57B1/6 mice. The settings on record: Platt et al.; cited from earlier work.

In the case of `CCCCN1C[C@H](O)[C@@H](O)[C@H](O)[C@H]1CO` [NB-DNJ, N-butyldeoxynojirimycin], the “loss of total body mass” value in assay [1] (2400 mg/kg/day in diet from 6 weeks of age, first week of treatment) is reported as “about 10%”. Moreover, the “less in mass compared with age and sex-matched control group” value in assay [1] (2400 mg/kg/day in diet, after 10 weeks) is reported as 20%. Further, the “weighed less than the controls” value in assay [1] (2400 mg/kg/day in diet, by 5 weeks of treatment) was determined as 25%. Besides, the “white adipose tissue on gross dissection” value in assay [2] (2400 mg/kg/day) is reported as “significant depletion of white adipose tissue”. In assay [2] (2400 mg/kg/day for four weeks, six week-old mice), the “reduction in mouse skin thickness” value came out at 40%. Besides, the “lowest dose at which a reduction in fat pad weight is apparent” value in assay [3] (5 weeks treatment, doses 15 to 2400 mg/kg/day) was 15 mg/kg/day. Besides, the “epididymal fat pad mass to total body weight” value in assay [3] (five weeks treatment, 15 to 2400 mg/kg/day) was “clear dose-related response”. In assay [4] (2 nmol ICV, 24 hours), the “ate less than saline- and NB-DGJ-injected mice” value came out at 20%; the “weight change” value is reported as “significant weight loss”. In assay [4] (first 24 hrs post icv injection), the “initial hyperphagic response” value was “did not cause an initialhyperphagic response”. Further, the “dose at which a well-defined effect on total body weight has been seen” value in assay [5] is listed as no less than 600 mg/kg/day.
